Results: patent US20090018162A1, “USE OF 6-(3-CHLORO-2-FLUOROBENZYL)-1-[(2S)-1-HYDROXY-3-METHYLBUTAN-2-YL]-7-METHOXY-4-OXO-1,4-DIHYDROQUINOLINE-3-CARBOXYLIC ACID OR SALT THEREOF FOR TREATING RETROVIRUS INFECTION” (priority 2006, published 2009)
Where two headings read alike, the source gives them in different places.

Legend:
[1] = system: recombinant HIV-1 clones (patient protease/RT sequences in HIV-1 NL4-3); test: microbe, parasite or virus in culture; format: cell-based; conditions: one experiment
[2] = MTS staining for PBMC viability (cytotoxicity); conditions: human
[3] = system: human PBMCs; test: MTS staining for PBMC viability (cytotoxicity); conditions: read-out: TC50, PBMCs, MTS
[4] = system: HIV-1 macrophage-tropic virus strains
[5] = system: HIV-1 clinical isolates; test: microbe, parasite or virus in culture; conditions: Human immunodeficiency virus 1, PBMC
[6] = system: HIV-2 CDC 310319; test: microbe, parasite or virus in culture; conditions: Human immunodeficiency virus 2, PBMC
[7] = system: HIV-1 macrophage-tropic virus strains; test: microbe, parasite or virus in culture; conditions: in Homo sapiens
[8] = system: drug-resistant HIV-1 isolates; test: Anti-HIV efficacy in fresh human PBMCs, drug-resistant HIV-1 isolates; conditions: for IC50: Human immunodeficiency virus 1, PBMC, in Homo sapiens
[9] = system: HIV-2 CDC 310319; conditions: HIV-2 CDC 310319 in PBMCs
[10] = MTS cytotoxicity in monocyte/macrophage cultures; format: cell-based; conditions: human, fresh adherent monocyte/macrophage cultures, HIV-infected, macrophages, MTS, read-out: TC50
Experimental: Anti-HIV Efficacy Evaluation in Fresh Human Monocyte/Macrophage. Monocytes/macrophages were allowed to adhere to the interior 60 wells of a 96 well flat bottomed plate for 2 to 18 hours at 37° C., 5% CO2. Following 6 to 14 days in culture, the monocyte/macrophage cultures were washed 3 times to remove any non-adherent cells and serially diluted test compounds were added followed by the addition of a pre-titered amount of HIV. Cultures were washed a final time by media removal 24 hours post infection, fresh compound added and the cultures continued for an additional six days. […] At assay termination, virus replication was measured by collecting cell-free supernatant samples which were analyzed for HIV p24 antigen content using a commercially available p24 ELISA assay (Coulter). […] MTS staining for PBMC viability to measure cytotoxicity. […] The mitochondrial enzymes of metabolically active cells metabolize MTS to yield a soluble formazan product. This allows the rapid quantitative analysis of cell viability and compound cytotoxicity. […] At termination of the assay, 20 μL of MTS reagent was added per well. The microtiter plates were then incubated 4-6 hrs at 37° C. The incubation intervals were chosen based on empirically determined times for optimal dye reduction. […] Data analysis.

[11] = system: HIV-1 clinical isolates
[12] = system: human PBMCs; conditions: 7 days

## COc1cc2c(cc1Cc1cccc(Cl)c1F)c(=O)c(C(=O)O)cn2[C@H](CO)C(C)C [Compound I, 6-(3-chloro-2-fluorobenzyl)-1-[(2S)-1-hydroxy-3-methylbutan-2-yl]-7-methoxy-4-oxo-1,4-dihydroquinoline-3-carboxylic acid]
[1]; Human immunodeficiency virus 1, NL43, 120 recombinant clones
  EC50: 1.06 nM
[1]; Human immunodeficiency virus 1, NL43, Reference clone (NL4-3), ten replicates
  EC50: 1.11 nM
[2]
  CC50 at 7 days: > 100 nM
[3]; 52-52 assay
  CC50: > 100 nM
[3]; 96USHIPS7 assay
  CC50: > 100 nM
[3]; 144-44 assay
  CC50: > 100 nM
[3]; 1002-60 assay
  CC50: > 100 nM
[3]; 1064-52 assay
  CC50: > 100 nM
[3]; BFC01 assay
  CC50: > 100 nM
[3]; BR/92/025 assay
  CC50: > 100 nM
[3]; BR/93/017 assay
  CC50: > 100 nM
[3]; BR/93/020 assay
  CC50: > 100 nM
[3]; BR/93/022 assay
  CC50: > 100 nM
[3]; CMU 02 assay
  CC50: > 100 nM
[3]; HIV-2 CDC 310319 assay
  CC50: > 100 nM
[3]; JV 1083 assay
  CC50: > 100 nM
[3]; RW/92/016 assay
  CC50: > 100 nM
[3]; UG/92/046 assay
  CC50: > 100 nM
[4]; HIV-1 ADA in macrophages
  TI (TC50/IC50): >7142.9
[4]; HIV-1 Ba-L in macrophages
  TI (TC50/IC50): >746.3
[4]; HIV-1 JR-CSF in macrophages
  TI (TC50/IC50): >322.6
[5]; HIV-1 96USHIPS7 (subtype /B, R5) in PBMCs
  IC50: 0.26 nM
[5]; HIV-1 BR/92/021 (subtype B/B, R5) in PBMCs
  IC50: 0.76 nM
[5]; HIV-1 BR/93/020 (subtype F/F, R5/X4) in PBMCs
  IC50: 0.74 nM
[5]; HIV-1 CMU 02 (subtype /EA, X4) in PBMCs
  IC50: 1.26 nM
[5]; HIV-1 JV 1083 (subtype /G, R5) in PBMCs
  IC50: 0.35 nM
[5]; HIV-1 RW/92/016 (subtype A/A, R5) in PBMCs
  IC50: 0.41 nM
[5]; HIV-1 UG/92/046 (subtype D/D, X4) in PBMCs
  IC50: 0.5 nM
[6]
  IC50: 0.53 nM
[7]; Human immunodeficiency virus 1, BAL, Macrophage, HIV-1 Ba-L in macrophages
  IC50: 0.67 nM
[7]; Human immunodeficiency virus 1, Macrophage, HIV-1 ADA in macrophages
  IC50: 0.07 nM
[7]; Human immunodeficiency virus 1, Macrophage, HIV-1 JR-CSF in macrophages
  IC50: 0.31 nM
[8]; HIV-1 52-52 in PBMCs
  TI (TC50/IC50): >588.2
[8]; HIV-1 144-44 in PBMCs
  TI (TC50/IC50): >138.89
[8]; HIV-1 1002-60 in PBMCs
  TI (TC50/IC50): >769.2
[8]; HIV-1 1064-52 in PBMCs
  TI (TC50/IC50): >158.7
[8]; HIV-1 MDR 769 in PBMCs
  TI (TC50/IC50): >555.6
[8]; HIV-1 MDR 807 in PBMCs
  TI (TC50/IC50): >88.5
[8]; HIV-1 MDR 1385 in PBMCs
  TI (TC50/IC50): >5000.0
[8]; HIV-1 MDR 3761 in PBMCs
  TI (TC50/IC50): >137.0
[8]; HIV-1 52-52 (protease-inhibitor resistant) in PBMCs
  IC50: 0.17 nM
[8]; against several viruses (e.g., MDR 1385, MDR 3761) in PBMCs
  IC50: < 1 nM
[8]; multi-drug-resistant HIV-1 MDR 769 in PBMCs
  IC50: 0.18 nM
[8]; multi-drug-resistant HIV-1 MDR 807 in PBMCs
  IC50: 1.13 nM
[8]; multi-drug-resistant HIV-1 MDR 1385 in PBMCs
  IC50: 0.02 nM
[8]; multi-drug-resistant HIV-1 MDR 3761 in PBMCs
  IC50: 0.73 nM
[9]
  TI (TC50/IC50): >188.7
[10]; ADA assay
  CC50 at 7 days: > 500 nM
[10]; Ba-L assay
  CC50 at 7 days: > 500 nM
[10]; JR-CSF assay
  CC50 at 7 days: > 100 nM
[11]; HIV-1 96USHIPS7 in PBMCs
  TI (TC50/IC50): >384.6
[11]; HIV-1 BFC01 in PBMCs
  TI (TC50/IC50): >85.5
[11]; HIV-1 BR/92/021 in PBMCs
  TI (TC50/IC50): >131.6
[11]; HIV-1 BR/92/025 in PBMCs
  TI (TC50/IC50): >1000.0
[11]; HIV-1 BR/93/017 in PBMCs
  TI (TC50/IC50): >555.6
[11]; HIV-1 BR/93/020 in PBMCs
  TI (TC50/IC50): >135.1
[11]; HIV-1 BR/93/022 in PBMCs
  TI (TC50/IC50): >88.5
[11]; HIV-1 CMU 02 in PBMCs
  TI (TC50/IC50): >79.4
[11]; HIV-1 JV 1083 in PBMCs
  TI (TC50/IC50): >285.7
[11]; HIV-1 RW/92/016 in PBMCs
  TI (TC50/IC50): >243.9
[11]; HIV-1 UG/92/046 in PBMCs
  TI (TC50/IC50): >200.0
[12]
  CC50: > 100 nM
